Results from ChEMBL document CHEMBL6121054, “Discovery of Metabolic Reprogramming 2-Quinolones as Effective Antimicrobials for MRSA-Infected Wound Therapy” (J Med Chem, 2025).
≈ marks a conversion by molar mass, not a printed value. Calls of active or inactive are those of the source. No cut-off for these calls is given here.

Key:
[1] = test system: Klebsiella pneumoniae; experiment: Bactericidal activity against Klebsiella pneumoniae E8.31; format: functional
[2] = test system: Staphylococcus aureus; experiment: Antibacterial activity against Staphylococcus aureus USA300 incubated for 16 to 24 hrs by broth microdilution method; format: functional; conditions: time 16-24 hrs
[3] = test system: Staphylococcus aureus; experiment: Antibacterial activity against Staphylococcus aureus USA400 incubated for 16 to 24 hrs by broth microdilution method; format: functional; conditions: time 16-24 hrs
[4] = test system: Staphylococcus aureus; experiment: Impairment of antioxidant defense system in Staphylococcus aureus USA300 upto 0.25 ug/ml by WST-8 assay; format: functional, organism-based; conditions: dose <= 0.25 µg/ml
[5] = test system: A549; experiment: Cytotoxicity against human A549 cells assessed as cell viability upto 8 ug/ml incubated for 6 hrs by LDH assay; format: toxicity, cell-based; conditions: a549, 6 h, dose < 8 µg/ml
[6] = test system: A549; experiment: Reversal of Staphylococcus aureus USA300-induced cytotoxicity in human A549 cells infected with bacteria assessed as cell viability upto 8 ug/ml preincubated with compound followed by […] infection for 5 hrs by LDH assay; format: functional, cell-based; conditions: dose <= 8.0 µg/ml
[7] = test system: Klebsiella pneumoniae; experiment: Antibacterial activity against Klebsiella pneumoniae E8.31 incubated for 16 to 24 hrs by broth microdilution method; format: functional; conditions: time 16-24 hrs
[8] = test system: J774.A1; experiment: Cytotoxicity against mouse J774.A1 cells assessed as cell viability upto 8 ug/ml incubated for 6 hrs by LDH assay; format: toxicity, cell-based; conditions: j774.a1, 6 h, dose < 8 µg/ml
[9] = test system: Staphylococcus aureus; experiment: Effect on purine metabolism in Staphylococcus aureus USA300 at 4 times MIC by KEGG analysis; format: functional, organism-based
[10] = test system: Staphylococcus aureus; experiment: Antibacterial activity against methicillin-resistant Staphylococcus aureus infected in BALB/c mouse wound model assessed as angiogenesis in skin tissue by measuring increase in CD31 expression at 20 to 80 mg/kg administered topically on days 0, 3 and 6 measured after 12 days by IHC analysis; format: functional, organism-based; conditions: dose 20-80 mg/kg, route top, time 12.0 day
[11] = test system: Staphylococcus aureus; experiment: Antibacterial activity against methicillin-resistant Staphylococcus aureus infected in BALB/c mouse wound model assessed as neovascularization in skin tissue at 20 to 80 mg/kg administered topically on days 0, 3 and 6 measured for 6 to 12 days by H and E staining based analysis; format: functional, organism-based; conditions: dose 20-80 mg/kg, route top, time 6-12 day
[12] = test system: Staphylococcus aureus; experiment: Antibacterial activity against Staphylococcus aureus NCTC 8325-4 incubated for 16 to 24 hrs by broth microdilution method; format: functional; conditions: time 16-24 hrs
[13] = test system: Staphylococcus aureus; experiment: Bactericidal activity against methicillin-resistant Staphylococcus aureus MRSA 2; format: functional
[14] = test system: Staphylococcus aureus; experiment: Bactericidal activity against methicillin-resistant Staphylococcus aureus MRSA 1; format: functional
[15] = test system: Staphylococcus aureus; experiment: Disruption of cell membrane integrity in Staphylococcus aureus USA300 assessed as indistinct cytoplasmic borders at 4 to 8 times MIC by TEM/SEM analysis; format: functional, organism-based
[16] = test system: Listeria monocytogenes; experiment: Inhibition of biofilm formation in Listeria monocytogenes EGD incubated for 24 hrs by crystal violet staining based analysis; format: functional, organism-based; conditions: dose <= 0.13 µg/ml
[17] = test system: Escherichia coli; experiment: Antibacterial activity against Escherichia coli ATCC 25922 incubated for 16 to 24 hrs by broth microdilution method; format: functional; conditions: time 16-24 hrs
[18] = test system: Caco-2; experiment: Cytotoxicity against human Caco-2 cells assessed as cell viability upto 8 ug/ml incubated for 6 hrs by LDH assay; format: toxicity, cell-based; conditions: caco-2, 6 h, dose < 8 µg/ml
[19] = test system: Streptococcus suis; experiment: Antibacterial activity against Streptococcus suis ZY05719 incubated for 16 to 24 hrs by broth microdilution method; format: functional; conditions: time 16-24 hrs
[20] = test system: Staphylococcus aureus; experiment: Bactericidal activity against Staphylococcus aureus ATCC 29213; format: functional
[21] = biological target: DNA gyrase (Staphylococcus aureus, UniProt P0A0K8+P20831); experiment: Inhibition of Staphylococcus aureus gyrase; format: protein-complex assay
DNA gyrase, sequence (P0A0K8 whole entry): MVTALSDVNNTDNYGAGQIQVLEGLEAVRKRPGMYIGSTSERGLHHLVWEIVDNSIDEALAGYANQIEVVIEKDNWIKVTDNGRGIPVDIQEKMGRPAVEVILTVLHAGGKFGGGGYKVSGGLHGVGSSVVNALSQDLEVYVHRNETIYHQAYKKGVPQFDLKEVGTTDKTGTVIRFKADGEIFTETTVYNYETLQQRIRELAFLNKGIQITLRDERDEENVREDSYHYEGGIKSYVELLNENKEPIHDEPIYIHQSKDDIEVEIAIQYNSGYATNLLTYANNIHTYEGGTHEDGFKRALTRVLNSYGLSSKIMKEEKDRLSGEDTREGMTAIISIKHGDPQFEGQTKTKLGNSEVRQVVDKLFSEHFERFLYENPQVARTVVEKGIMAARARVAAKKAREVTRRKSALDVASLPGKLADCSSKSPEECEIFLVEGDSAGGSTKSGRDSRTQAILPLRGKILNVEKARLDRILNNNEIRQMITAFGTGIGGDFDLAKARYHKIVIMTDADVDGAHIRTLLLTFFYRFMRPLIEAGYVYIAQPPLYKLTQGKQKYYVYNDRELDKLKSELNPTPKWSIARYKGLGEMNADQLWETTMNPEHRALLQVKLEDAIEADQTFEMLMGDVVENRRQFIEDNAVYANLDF
DNA gyrase, sequence (P20831 whole entry): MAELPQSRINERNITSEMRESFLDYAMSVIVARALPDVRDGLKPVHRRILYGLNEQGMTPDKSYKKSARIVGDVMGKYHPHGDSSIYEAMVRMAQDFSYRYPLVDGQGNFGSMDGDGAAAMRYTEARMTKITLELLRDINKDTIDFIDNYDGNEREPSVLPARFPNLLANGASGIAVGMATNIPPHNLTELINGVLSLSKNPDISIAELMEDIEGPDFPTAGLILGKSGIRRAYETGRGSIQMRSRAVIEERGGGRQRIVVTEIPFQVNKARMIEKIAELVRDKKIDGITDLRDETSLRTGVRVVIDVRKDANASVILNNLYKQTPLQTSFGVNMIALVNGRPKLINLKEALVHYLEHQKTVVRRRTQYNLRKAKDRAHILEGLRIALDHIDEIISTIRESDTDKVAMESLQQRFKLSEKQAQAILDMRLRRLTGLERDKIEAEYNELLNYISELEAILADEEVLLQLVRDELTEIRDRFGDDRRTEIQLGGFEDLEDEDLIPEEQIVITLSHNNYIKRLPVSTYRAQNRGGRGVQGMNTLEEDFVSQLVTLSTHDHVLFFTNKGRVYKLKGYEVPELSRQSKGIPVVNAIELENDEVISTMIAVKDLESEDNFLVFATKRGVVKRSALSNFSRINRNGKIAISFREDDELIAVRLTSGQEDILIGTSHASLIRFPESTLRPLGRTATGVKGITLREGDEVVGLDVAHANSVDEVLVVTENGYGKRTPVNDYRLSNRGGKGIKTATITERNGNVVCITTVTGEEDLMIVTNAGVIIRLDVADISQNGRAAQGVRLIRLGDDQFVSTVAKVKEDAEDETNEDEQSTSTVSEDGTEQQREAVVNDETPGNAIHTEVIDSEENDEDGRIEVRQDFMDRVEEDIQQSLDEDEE

[22] = test system: Staphylococcus aureus; experiment: Bactericidal activity against methicillin-resistant Staphylococcus aureus USA300 at >= 1 ug/ml measured upto 24 hrs by time-kill assay relative to control; format: functional; conditions: dose >= 1 µg/ml
[23] = test system: Staphylococcus aureus; experiment: Antibacterial activity against Staphylococcus aureus USA300 assessed as acceleration of TCA cycle measured by increase in gltA mRNA level upto 0.25 ug/ml incubated for 6 hrs by RT-PCR analysis; format: functional, organism-based; conditions: dose <= 0.25 µg/ml
[24] = test system: Staphylococcus aureus; experiment: Antibacterial activity against Staphylococcus aureus USA300 at 2 times MIC measured upto 24 hrs in presence of alpha-tocopherol; format: functional, organism-based
[25] = test system: Staphylococcus aureus; experiment: Bactericidal activity against Staphylococcus aureus ATCC 25923; format: functional
[26] = test system: Staphylococcus aureus; experiment: Disruption of cell membrane integrity in Staphylococcus aureus USA300 assessed as swelling at 4 to 8 times MIC by TEM/SEM analysis; format: functional, organism-based
[27] = test system: Staphylococcus aureus; experiment: Inhibition of biofilm formation in Staphylococcus aureus USA300 upto 0.13 ug/ml incubated for 24 hrs by crystal violet staining based analysis; format: functional, organism-based; conditions: dose <= 0.13 µg/ml
[28] = test system: Staphylococcus aureus; experiment: Antibacterial activity against Staphylococcus aureus DU1090 incubated for 16 to 24 hrs by broth microdilution method; format: functional; conditions: time 16-24 hrs
[29] = test system: Staphylococcus aureus; experiment: Disruption of cell membrane integrity in Staphylococcus aureus USA300 assessed as increase in red fluorescence at 1 to 4 times MIC by SYTO-9/PI dye based CLSM analysis; format: functional, organism-based
[30] = test system: Staphylococcus aureus; experiment: Antibacterial activity against Staphylococcus aureus ATCC 25904 incubated for 16 to 24 hrs by broth microdilution method; format: functional; conditions: time 16-24 hrs
[31] = test system: Staphylococcus aureus; experiment: Effect on biosynthesis of co-factors in Staphylococcus aureus USA300 at 4 times MIC by KEGG analysis; format: functional, organism-based
[32] = test system: Streptococcus suis; experiment: Bactericidal activity against Streptococcus suis ZY05719 measured upto 24 hrs by time-kill assay; format: functional, organism-based
[33] = test system: Staphylococcus aureus; experiment: Antibacterial activity against methicillin-resistant Staphylococcus aureus infected in BALB/c mouse wound model assessed as decrease in wound diameter at 20 to 80 mg/kg administered topically on days 0, 3 and 6 measured after 12 days; format: functional, organism-based; conditions: dose 20-80 mg/kg, route top, time 12.0 day
[34] = test system: Staphylococcus aureus; experiment: Bactericidal activity against Staphylococcus aureus USA400; format: functional
[35] = test system: Staphylococcus aureus; experiment: Effect on tyrosine metabolism in Staphylococcus aureus USA300 at 4 times MIC by KEGG analysis; format: functional, organism-based
[36] = test system: Escherichia coli; experiment: Bactericidal activity against Escherichia coli ATCC ZJ487; format: functional
[37] = test system: Staphylococcus aureus; experiment: Antibacterial activity against methicillin-resistant Staphylococcus aureus infected in BALB/c mouse wound model assessed as reversal of inflammation-induced IL-1beta level in wound at 20 to 80 mg/kg administered topically on days 0, 3 and 6 measured after 12 days by ELISA; format: functional, organism-based; conditions: dose 20-80 mg/kg, route top, time 12.0 day
[38] = test system: Staphylococcus aureus; experiment: Antibacterial activity against methicillin-resistant Staphylococcus aureus infected in BALB/c mouse wound model assessed as organised collagen fibers in skin tissue at 20 to 80 mg/kg administered topically on days 0, 3 and 6 measured for 6 to 12 days by Masson's trichome staining based analysis; format: functional, organism-based; conditions: dose 20-80 mg/kg, route top, time 6-12 day
[39] = test system: Staphylococcus aureus; experiment: Induction of H2O2 accumulation in Staphylococcus aureus USA300 upto 0.25 ug/ml incubated for 5 hrs; format: functional, organism-based; conditions: dose <= 0.25 µg/ml
[40] = test system: Acinetobacter baumannii; experiment: Bactericidal activity against Acinetobacter baumannii ATCC 19606; format: functional
[41] = test system: Staphylococcus aureus; experiment: Antibacterial activity against Staphylococcus aureus USA300 assessed as acceleration of TCA cycle measured by decrease in NAD+/NADH ratio upto 0.25 ug/ml incubated for 5 hrs; format: functional, organism-based; conditions: dose <= 0.25 µg/ml
[42] = test system: Staphylococcus aureus; experiment: Eradication of mature biofilm formation in Staphylococcus aureus USA300 incubated for 12 hrs by crystal violet staining based analysis; format: functional, organism-based
[43] = test system: Staphylococcus aureus; experiment: Effect on TCA cycle in Staphylococcus aureus USA300 at 4 times MIC by KEGG analysis; format: functional, organism-based

SMILES: CCn1c(=O)c(C(=O)Nc2nnc(-c3ccc(C)cn3)s2)c(O)c2ccccc21
- MBC [1]: > 512 mg/L
- MIC [2]: 0.04 mg/L (≈ 0.0982 µM)
- MIC [3]: 0.03 mg/L (≈ 0.0736 µM)
- Activity [4]: Active
- Activity [5]: Non-toxic
- Activity [6]: Active
- MIC [7]: > 512 mg/L
- Activity [8]: Non-toxic
- Activity [9]: Active
- Activity [10]: Active
- Activity [11]: Active
- MIC [12]: 0.03 mg/L (≈ 0.0736 µM)
- MBC [13]: 0.05 mg/L (≈ 0.123 µM)
- MBC [14]: 0.05 mg/L (≈ 0.123 µM)
- Activity [15]: Active
- inhibition [16]: Dose-dependent-effect
- MIC [17]: > 512 mg/L
- Activity [18]: Non-toxic
- MIC [19]: 0.04 mg/L (≈ 0.0982 µM)
- MBC [20]: 0.15 mg/L (≈ 0.368 µM)
- IC50 [21]: 1.19 µM
- Activity [22]: ~100%
- Activity [23]: Active
- Activity [24]: inactive
- MBC [25]: 0.1 mg/L (≈ 0.245 µM)
- Activity [26]: Active
- inhibition [27]: Active
- MIC [28]: 0.02 mg/L (≈ 0.0491 µM)
- Activity [29]: Active
- MIC [30]: 0.02 mg/L (≈ 0.0491 µM)
- Activity [31]: Active
- Activity [32]: Active; Bacteria Were Suppressed Or Completely Eliminated
- Activity [33]: Active
- MBC [34]: 0.05 mg/L (≈ 0.123 µM)
- Activity [35]: Active
- MBC [36]: > 512 mg/L
- Activity [37]: Active
- Activity [38]: Active
- Activity [39]: Active
- MBC [40]: > 512 mg/L
- Activity [41]: Active
- Activity [42]: Active
- Activity [43]: Active
